Assays:
[1] = system: Staphylococcus aureus KCTC 3881; test: Mouse splinted excisional wound model, wound size by caliper; type: in vivo, BALB/c mouse; details: no red light
Protocol: (§1) A 7-week-old male BALB/c mouse (BALB-cAnNCr1jOri, Orientbio, Seongnam, South Korea) was housed for a week in a sterile animal room (SPF, Specific pathogen free) with a controlled air temperature of 22±2° C., a humidity of 50±10%, and the cycle of 12 hours of light and 12 hours of dark. The mice were anesthetized through an avertin intraperitoneal injection, a 5 mm wound was made therein using a biopsy patch, and a central portion of silicone drilled to an outside diameter of 15 mm and an inside diameter of 5 mm was stuck to fit the wound. Then, in the case of the experimental group, 10 μL of a physiological buffer solution (PBS) containing 10^9 CFU/mL of Staphylococcus aureus KCTC 3881 (S.A. bacterium) was inoculated into the wound site, which was then clogged with Tegaderm, and the back of the mice was wrapped with a compression bandage so that the wound site was not in contact with the outside.
Two days after the infection with Staphylococcus aureus, in the case of the group treated with Ligularia fischeri ethanol according to Preparation Example 1(1), the wound was treated with 10 μL of a Ligularia fischeri ethanol extract (20 μg/mL), and in the case of the red light treated group, the wound was treated with red light LED (wavelength: 660 nm, 120 W/m^2) for 15 minutes. In addition, in the case of the Ligularia fischeri ethanol extract according to Preparation Example 1(1) and the red light-treated group, 10 μL of the Ligularia fischeri ethanol extract (20 μg/mL) was treated on the wound for 30 minutes and then red light (120 W/m^2) was treated for 15 minutes. […]
The wound was treated in the same manner as above, even 4, 6, and 8 days after infection with Staphylococcus aureus, and the image of the wound site was obtained on Day 2, 4, 6, and 8 after infection with Staphylococcus aureus. The width and height of the wound site were measured using a caliper and the product obtained by multiplying the width with the height was used to calculate the wound size in mm^2. […]

[2] = system: Staphylococcus aureus KCTC 3881; test: Mouse splinted excisional wound model, wound closure by H&E histology (distance between epidermis tips); type: in vivo, BALB/c mouse; details: no red light
Protocol: as §1
Two days after the infection with Staphylococcus aureus, in the case of the group treated with Ligularia fischeri ethanol according to Preparation Example 1(1), the wound was treated with 10 μL of a Ligularia fischeri ethanol extract (20 μg/mL), and in the case of the red light treated group, the wound was treated with red light LED (wavelength: 660 nm, 120 W/m^2) for 15 minutes. […]
A wound size measurement is a measurement of apparently appearing wound scab and requires the task of histologically confirming whether the wound has been closed by an epidermis actually newly created inside the scab. To this end, the distance between the wound epidermis was measured. […]
Example 1(1)+red light), and the ampicillin-treated group (S.A.bacteria+Ampicillin) on Day 8 after the wound is infected with Staphylococcus aureus (S.A.bacteria). […] At this time, statistical significance between Control (PBS) and S. A. bacteria-treated group was expressed as ^##p<0.001. Statistical significance with S. A. bacteria-treated group-treated group was expressed as *p<0.05 or […]. […]

Structure (SMILES): CC1(C)S[C@@H]2[C@H](NC(=O)[C@H](N)c3ccccc3)C(=O)N2[C@H]1C(=O)O [ampicillin, Ampicillin]
- wound size compared to the group treated with S.A. bacteria ([1]; Day 8, infected wound): no significant difference in wound size
- wound size, % of the initial wound size ([1]; Day 8, wound infected with S.A. bacteria, topical 10 μL): 53.7%
- change in wound size, uninfected (PBS) wound ([1]; PBS (no S.A. infection)): the change in wound size did not occur over time
- wound closure (epidermis formation, H&E) ([2]; Day 8, PBS (uninfected) wound): completely closed
- distance between epithelial tips (wound maintained) ([2]; Day 8, infected wound): 16.6%
- histological wound size compared to the S.A. bacteria-treated group ([2]; Day 8, infected wound): reduced
